# Experimental data as given in patent US20050070570A1, “Novel potassium channels modulators” (4SC AG, priority 2003, published 2005).
# Target: BK channels (CHO cells permanently transfected with cloned hSlo, α-hSlo and β-bSlo) (Homo sapiens, UniProt Q12791)
# Assay: Em-Assay: fluorescence membrane potential assay with voltage sensitive dye DiBAC(4)3
# Assay type: cell-based
# Conditions: ratio of the compound effect (50 μM) compared to the maximal effect of NS004 (25 or 50 μM)
# Text: The large conductance, voltage-dependent and Ca^2+-activated potassium channel BK is a potassium selective ion channel and belongs to the subfamily of KCa channels. Four BK alpha-subunits form a functional channel that can be regulated by intracellular Ca^2+ concentration, membrane voltage, and other mechanisms like phosphorylation states or beta subunits. To test the biological activity of the compounds, we applied two different techniques, a fluorescence based assay using a voltage sensitive dye (Em-Assay) as well as exploiting electrophysiological methods.
# CHO cells permanently transfected with cloned hSlo (α-hSlo and β-bSlo), yielding typical BK potassium currents (Zhou et al., Pflügers Arch., 436: 725-734 (1998), were used for the evaluation of compound activity. Activation or inhibition of BK channels in these cells leads to a change of the electrochemical gradient causing a hyperpolarized or depolarised membrane potential, respectively.
# To determine changes in the membrane potential of the cells we used the voltage sensitive dye DiBaC(4)3 (Molecular Probes) in a kinetic assay system using a fluorescent plate reader (Manning and Sontheimer, J. Neurosci. Meth., 91: 73-81 (1999). The anionic bis-oxonol DiBAC(4)3 is a voltage sensitive dye which partitions from the extracellular environment into the cell where it reversibly binds to intracellular proteins, a kinetic process depending on the membrane potential of the cell. At depolarised potentials (i.e. at a reduced K^+ efflux due to blocked K^+ channels) the dye accumulates in the cell leading to an increased fluorescence intensity, due to its increased fluorescence if bound to cellular proteins. At hyperpolarized potentials (i.e. at an increased K^+ efflux due to the opening of K^+ channels), the dye partitions out of the cell causing a decreased fluorescence intensity.
# hslo transfected CHO cells where maintained in DMEM supplemented with 10% FCS, 250 μg/ml Geneticin, 100 μg/m Hygromycin, 1×HT-Supplement, and 1×Non-essential Amino Acids and cultured in a humidified CO2 incubator. After trypsination, cells where plated with a density of 5×10^4 cells per well on a clear 96-well plate and incubated for 24 h. Cells where washed once with PBS, once with PBS containing 20 mM HEPES (adjusted to pH 7.4 with NaOH) and 2 μM DiBAC(4)3 (DPBS-DiBAC solution). 180 μl of the dPBS-DiBAC solution was then added to the cells and the plate incubated for 30-60 min at 37° C. During this time the dye could partition into the cells and reach a certain steady-state distribution, depending on the resting membrane potential. Test and reference compounds were stored as DMSO stock solutions and diluted in dPBS-DiBAC solution to the desired concentration.
# Fluorescence intensity (Ex.: 485 nm/Em.: 520 nm) of each well was detected in the plate reader (Fluostar, BMG) every 60 seconds. After recording the baseline fluorescence for 7 minutes, 20 μl test- and reference compounds were added and the fluorescence intensity was detected for additional 15 minutes. Background was subtracted, data values were normalized and expressed as a change in fluorescence intensity against time. The change in fluorescence intensity caused by the test compounds was evaluated, compared to the effect of the reference compound NS004, and the ratio was determined (see Table I).
# BK channels (CHO cells permanently transfected with cloned hSlo, α-hSlo and β-bSlo), sequence (Q12791 whole entry): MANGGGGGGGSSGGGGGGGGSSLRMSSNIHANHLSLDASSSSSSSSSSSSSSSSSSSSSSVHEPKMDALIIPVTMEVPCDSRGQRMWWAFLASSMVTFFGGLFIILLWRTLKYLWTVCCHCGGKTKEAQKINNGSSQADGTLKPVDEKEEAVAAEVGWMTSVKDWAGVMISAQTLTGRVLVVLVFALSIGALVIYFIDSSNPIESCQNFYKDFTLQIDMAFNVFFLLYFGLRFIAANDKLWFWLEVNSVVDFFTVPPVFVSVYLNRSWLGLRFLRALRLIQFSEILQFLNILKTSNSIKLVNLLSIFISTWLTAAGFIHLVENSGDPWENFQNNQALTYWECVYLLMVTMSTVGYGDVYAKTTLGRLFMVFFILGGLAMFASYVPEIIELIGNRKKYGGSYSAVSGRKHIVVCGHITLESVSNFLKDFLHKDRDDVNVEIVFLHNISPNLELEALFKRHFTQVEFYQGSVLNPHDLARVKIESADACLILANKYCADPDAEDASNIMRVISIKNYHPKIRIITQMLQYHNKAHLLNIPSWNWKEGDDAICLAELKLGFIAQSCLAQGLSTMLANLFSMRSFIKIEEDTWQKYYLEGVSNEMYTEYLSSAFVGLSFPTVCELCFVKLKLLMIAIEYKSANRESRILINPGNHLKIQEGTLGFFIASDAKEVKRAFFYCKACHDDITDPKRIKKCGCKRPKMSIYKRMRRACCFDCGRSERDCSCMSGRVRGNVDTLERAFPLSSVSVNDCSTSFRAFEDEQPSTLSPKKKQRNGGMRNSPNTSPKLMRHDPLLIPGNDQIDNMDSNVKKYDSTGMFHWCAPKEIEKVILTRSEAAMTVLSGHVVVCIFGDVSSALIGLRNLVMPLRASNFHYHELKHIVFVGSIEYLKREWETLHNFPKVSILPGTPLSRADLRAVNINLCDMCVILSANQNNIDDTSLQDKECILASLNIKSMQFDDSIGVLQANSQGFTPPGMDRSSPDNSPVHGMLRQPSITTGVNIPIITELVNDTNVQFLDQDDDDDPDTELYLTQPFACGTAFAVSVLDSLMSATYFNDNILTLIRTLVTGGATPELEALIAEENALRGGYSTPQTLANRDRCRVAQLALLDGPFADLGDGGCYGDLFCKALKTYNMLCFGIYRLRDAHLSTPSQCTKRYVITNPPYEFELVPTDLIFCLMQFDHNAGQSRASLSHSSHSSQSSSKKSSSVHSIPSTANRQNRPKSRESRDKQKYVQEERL
# BK channels (CHO cells permanently transfected with cloned hSlo, α-hSlo and β-bSlo), sequence (Q28067 whole entry partner): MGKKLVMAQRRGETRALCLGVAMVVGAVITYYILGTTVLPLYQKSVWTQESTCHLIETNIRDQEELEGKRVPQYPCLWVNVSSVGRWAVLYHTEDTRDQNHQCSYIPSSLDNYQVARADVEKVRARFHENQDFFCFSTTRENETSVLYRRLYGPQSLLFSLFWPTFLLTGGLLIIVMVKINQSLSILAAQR
row,Structure (SMILES),Em effect
1,"COc1ccc(C(=O)N2CCc3cc(OC)cc(OC)c3C2c2ccc(-c3ccccc3)cc2)cc1 (stereo not shown) [Compound 1, (1-Biphenyl-4-yl-6,8-dimethoxy-3,4-dihydro-1H-isoquinolin-2-yl)-(4-methoxy-phenyl)-methanone]",+ (0-1=+)
2,"COc1cc2c(c(OC)c1)C(c1ccc(-c3ccccc3)cc1)N(C(=O)c1ccc([N+](=O)[O-])cc1)CC2 (stereo not shown) [Compound 2, (1-Biphenyl-4-yl-6,8-dimethoxy-3,4-dihydro-1H-isoquinolin-2-yl)-(4-nitro-phenyl)-methanone]",+ (0-1=+)
3,"COc1cc2c(c(OC)c1)C(c1ccc(-c3ccccc3)cc1)N(C(=O)c1cccc(Br)c1)CC2 (stereo not shown) [Compound 3, (1-Biphenyl-4-yl-6,8-dimethoxy-3,4-dihydro-1H-isoquinolin-2-yl)-(3-bromo-phenyl) methanone]",+ (0-1=+)
4,"COc1cc2c(c(OC)c1)C(c1ccc(-c3ccccc3)cc1)N(C(=O)c1ccc(C(F)(F)F)cc1)CC2 (stereo not shown) [Compound 4, (1-Biphenyl-4-yl-6,8-dimethoxy-3,4-dihydro-1H-isoquinolin-2-yl)-(4-trifluoromethylphenyl)-methanone]",+ (0-1=+)
5,"COc1cc2c(c(OC)c1)C(c1ccc(-c3ccccc3)cc1)N(C(=O)c1ccc(C(F)(F)F)cc1F)CC2 (stereo not shown) [Compound 5, (1-Biphenyl-4-yl-6,8-dimethoxy-3,4-dihydro-1H-isoquinolin-2-yl)-(2-fluoro-4-trifluoromethyl-phenyl)-methanone]",+ (0-1=+)
6,"COc1cc2c(c(OC)c1)C(c1ccc(-c3ccccc3)cc1)N(C(=O)c1ccc(C(C)(C)C)cc1)CC2 (stereo not shown) [Compound 6, (1-Biphenyl-4-yl-6,8-dimethoxy-3,4-dihydro-1H-isoquinolin-2-yl)-(4-tert-butyl-phenyl)-methanone]",+ (0-1=+)
7,"COc1cc2c(c(OC)c1)C(c1ccc(-c3ccccc3)cc1)N(C(=O)c1ccc(OC(F)(F)F)cc1)CC2 (stereo not shown) [Compound 7, (1-Biphenyl-4-yl-6,8-dimethoxy-3,4-dihydro-1H-isoquinolin-2-yl)-(4-trifluoromethoxy-phenyl)-methanone]",+ (0-1=+)
8,"COc1cc2c(c(OC)c1)C(c1ccc(-c3ccccc3)cc1)N(C(=O)c1cc(C(F)(F)F)cc(C(F)(F)F)c1)CC2 (stereo not shown) [Compound 8, (1-Biphenyl-4-yl-6,8-dimethoxy-3,4-dihydro-1H-isoquinolin-2-yl)-(3,5-bis-trifluoromethyl-phenyl)methanone]",+ (0-1=+)
9,"COc1cccc(C(=O)N2CCc3cc(OC)cc(OC)c3C2c2ccc(O)cc2)c1 (stereo not shown) [Compound 9, [1-(4-Hydroxy-phenyl)-6,8-dimethoxy-3,4-dihydro-1H-isoquinolin-2-yl]-(3-methoxy-phenyl)-methanone]",+ (0-1=+)
10,"COc1cc2c(c(OC)c1)C(c1ccc(O)cc1)N(C(=O)CCCCBr)CC2 (stereo not shown) [Compound 10, 5-Bromo-1-[1-(4-hydroxy-phenyl)-6,8-dimethoxy-3,4-dihydro-1H-isoquinolin-2-yl]-pentan-1-one]",+ (0-1=+)
11,"COc1cc2c(c(OC)c1)C(c1ccc(O)cc1)N(C(=O)c1cccc(OC(F)(F)F)c1)CC2 (stereo not shown) [Compound 11, [1-(4-Hydroxy-phenyl)-6,8-dimethoxy-3,4-dihydro-1H-isoquinolin-2-yl]-(3-trifluoromethoxy-phenyl)-metanone]",+ (0-1=+)
12,COc1cc2c(c(OC)c1)C(c1ccc(O)cc1)N(C(=O)CCc1ccccc1)CC2 (stereo not shown) [Compound 12],+ (0-1=+)
13,COc1cc2c(c(OC)c1)C(c1ccc(O)cc1)N(C(=O)c1ccccc1OC(F)(F)F)CC2 (stereo not shown) [Compound 13],+ (0-1=+)
14,"COc1cc2c(c(OC)c1)C(c1ccc(O)cc1)N(C(=O)c1ccc(C(C)(C)C)cc1)CC2 (stereo not shown) [Compound 14, (4-tert-Butyl-phenyl)-[1-(4-hydroxy-phenyl)-6,8-dimethoxy-3,4-dihydro-1-H-isoquinolin-2-yl]-methanone]",+ (0-1=+)
15,"COc1cc2c(c(OC)c1)C(c1ccc(O)cc1)N(C(=O)c1ccc(-c3ccccc3)cc1)CC2 (stereo not shown) [Compound 15, Biphenyl-4-yl-[1-(4-hydroxy-phenyl)-6,8-dimethoxy-3,4-dihydro-1H-isoquinolin-2-yl]-methanone]",+ (0-1=+)
16,"COc1cc2c(c(OC)c1)C(c1ccc(O)cc1)N(C(=O)c1cnc3ccccc3n1)CC2 (stereo not shown) [Compound 16, [1-(4-Hydroxy-phenyl)-6,8-dimethoxy-3,4-dihydro-1H-isoquinolin-2-yl]-quinoxalin-2-yl-methanone]",+ (0-1=+)
17,"COc1cc2c(c(OC)c1)C(c1ccc(O)cc1)N(C(=O)c1cccc3ccccc13)CC2 (stereo not shown) [Compound 17, [1-(4-Hydroxy-phenyl)-6,8-dimethoxy-3,4-dihydro-1H-isoquinolin-2-yl]-naphthalen-1-yl-methanone]",+ (0-1=+)
18,"COc1cc2c(c(OC)c1)C(c1ccc(O)cc1)N(C(=O)c1cccc(C(F)(F)F)c1)CC2 (stereo not shown) [Compound 18, [1-(4-Hydroxy-phenyl)-6,8-dimethoxy-3,4-dihydro-1H-isoquinolin-2-yl]-(3-trifluoromethyl-phenyl)-methanone]",+ (0-1=+)
19,"COc1cc2c(c(OC)c1)C(c1ccc(O)cc1)N(C(=O)C1CCCC1)CC2 (stereo not shown) [Compound 19, Cyclopentyl-[1-(4-hydroxy-phenyl)-6,8-dimethoxy-3,4-dihydro-1H-isoquinolin-2-yl]-methanone]",+ (0-1=+)
20,"COc1cc2c(c(OC)c1)C(c1ccc(O)cc1)N(C(=O)c1ccc(C(F)(F)F)cc1)CC2 (stereo not shown) [Compound 20, [1-(4-Hydroxy-phenyl)-6,8-dimethoxy-3,4-dihydro-1H-isoquinolin-2-yl]-(4-trifluoromethyl-phenyl)methanone]",+ (0-1=+)
21,"COc1cc2c(c(OC)c1)C(c1ccc(O)cc1)N(C(=O)CCC1CCCC1)CC2 (stereo not shown) [Compound 21, 3-Cyclopentyl-1-[1-(4-hydroxy-phenyl)-6,8-dimethoxy-3,4-dihydro-1H-isoquinolin-2-yl]-propan-1-one]",+++ (>1.5=+++)
22,"COc1ccc(C(=O)N2CCc3cc(OC)cc(OC)c3C2c2ccc(O)cc2)cc1 (stereo not shown) [Compound 22, [1-(4-Hydroxy-phenyl)-6,8-dimethoxy-3,4-dihydro-1H-isoquinolin-2-yl]-(4-methoxy-phenyl)-methanone]",+ (0-1=+)
23,"COc1cc2c(c(OC)c1)C(c1ccc(O)cc1)N(C(=O)CCC1CCCCC1)CC2 (stereo not shown) [Compound 23, 3-Cyclohexyl-1-[1-(4-hydroxy-phenyl)-6,8-dimethoxy-3,4-dihydro-1H-isoquinolin-2-yl]-propan-1-one]",+ (0-1=+)
24,"COc1cc2c(c(OC)c1)C(c1ccc(O)cc1)N(C(=O)c1sc3ccccc3c1Cl)CC2 (stereo not shown) [Compound 24, (3-Chloro-benzo[b]thiophen-2-yl)-[1-(4-hydroxy-phenyl)-6,8-dimethoxy-3,4-dihydro-1H-iso-quinolin-2-yl]-methanone]",+ (0-1=+)
25,"COc1cc2c(c(OC)c1)C(c1ccc(O)cc1)N(C(=O)c1cccs1)CC2 (stereo not shown) [Compound 25, [1-(4-Hydroxy-phenyl)-6,8-dimethoxy-3,4-dihydro-1H-iso-quinolin-2-yl]-thiophen-2-yl-methanone]",+ (0-1=+)
26,"COc1cc2c(c(OC)c1)C(c1ccc(O)cc1)N(C(=O)c1ccc3c(c1)OCO3)CC2 (stereo not shown) [Compound 26, Benzo[1,3]dioxol-5-yl-[1-(4-hydroxy-phenyl)-6,8-dimethoxy-3,4-dihydro-1H-isoquinolin-2-yl]-methanone]",+ (0-1=+)
27,"COc1cc2c(c(OC)c1)C(c1ccc(O)cc1)N(C(=O)c1ccno1)CC2 (stereo not shown) [Compound 27, [1-(4-Hydroxy-phenyl)-6,8-dimethoxy-3,4-dihydro-1H-isoquinolin-2-yl]-isoxazol-5-yl-methanone]",+ (0-1=+)
28,"COc1cc2c(c(OC)c1)C(c1cccc(OC(F)(F)F)c1)N(C(C)=O)CC2 (stereo not shown) [Compound 29, 1-[6,8-Dimethoxy-1-(3-trifluoromethoxy-phenyl)-3,4-dihydro-1H-isoquinolin-2-yl]-ethanone]",++ (>1-1.5=++)
